According to ChEMBL document CHEMBL1130570, “Cyclic saligenyl phosphotriesters of 2,3-dideoxy-2,3-didehydrothymidine (d4T) a new pro-nucleotide approach” (Bioorg Med Chem Lett, 1997):
Values after ≈ are worked out from the molar mass of the structure shown.

Tests used:
[1] = Partition coefficient in 1-octanol / phosphate buffer at pH 6.8; assay type: physicochemical; conditions: octanol/water
[2] = tested on: CCRF-CEM; assay: Effective concentration that causes 50 % inhibition of HIV-2 in CEM/TK- cells, was determined.; assay type: functional, cell-based; conditions: Homo sapiens
[3] = tested on: CCRF-CEM; assay: Effective concentration that causes 50 % inhibition of HIV-1 in CEM/0 cells, was determined.; assay type: functional, cell-based; conditions: Homo sapiens
[4] = tested on: CCRF-CEM; assay: Effective concentration that causes 50 % inhibition of HIV-2 in CEM/0 cells, was determined.; assay type: functional, cell-based; conditions: Homo sapiens

Compound | PC [1] | EC50 [2] [µg/mL] | EC50 [3] [µg/mL] | EC50 [4] [µg/mL]
Cc1ccc2c(c1)COP(=O)(OC[C@@H]1C=C[C@H](n3cc(C)c(=O)[nH]c3=O)O1)O2 (some centres undefined) | 5.4 |  |  | 
Cc1cn([C@H]2C=C[C@@H](COP3(=O)OCc4cc(Cl)ccc4O3)O2)c(=O)[nH]c1=O (some centres undefined) | 7.7 | 20 (≈ 46.9 µM) | 0.18 (≈ 0.422 µM) | 0.25 (≈ 0.586 µM)
Cc1cn([C@H]2C=C[C@@H](COP3(=O)OCc4cc([N+](=O)[O-])ccc4O3)O2)c(=O)[nH]c1=O (some centres undefined) | 1.5 | 40 (≈ 91.5 µM) | 0.29 (≈ 0.663 µM) | 0.4 (≈ 0.915 µM)
Cc1cn([C@H]2C=C[C@@H](COP3(=O)OCc4ccccc4O3)O2)c(=O)[nH]c1=O (some centres undefined) | 1.9 |  |  | 
Cc1cn([C@H]2C=C[C@@H](CO)O2)c(=O)[nH]c1=O [STAVUDINE] | 0.15 | 45 (≈ 201 µM) | 0.4 (≈ 1.78 µM) | 1.45 (≈ 6.47 µM)
